Laboratory results reported in patent publication US20100137240A1, “USE OF NUCLEOSIDE DERIVATIVES AS ANTI-KOI HERPES VIRUS IN FISH” (Katholieke Universiteit Leuven, priority 2007, published 2010).
≈ marks a conversion by molar mass, not a printed value. Like-named read-outs stand apart in the source and are kept apart here. Blank lines part the entries; values can stand above or below the compound they belong to.

Assays:
[1] = system: Koi Herpes virus (KHV); experiment: Inhibition of Koi Herpes Virus infections in cell culture (plaque / cytopathic effect, crystal violet); assay type: cell-based, Koi herpesvirus (KHV); conditions: for IC50: Cyprinid herpesvirus 3, 120 h; for effect on KHV replication (in words): in vitro; for concentration resulting in complete inhibition of KHV replication: KHV in CCB cells, five days post infection
Description: KHV inhibitory activity can be readily detected using the assays described herein, as well as other assays known to those of ordinary skill in the art. In general, carp cells are infected with KHV and are incubated with the compounds to be tested for inhibitory activity. A more detailed description is provided in the examples.
(§1) Compounds for testing KHV-antiviral activity were dissolved in dimethylsulfoxide (DMSO) at a concentration of 20 mg/ml, then filtrated through a 0.45 μm filter to obtain a sterile solution. Common carp brain (CCB) cells were grown in minimum essential medium (MEM, commercially available from Invitrogen) containing 4.5 g/l glucose (D-glucose monohydrate, Merck) and 10% fetal calf serum (FCS, commercially available from BioWhittaker). Cells were incubated at 25° C. in a humid atmosphere containing 5% CO2. Confluent cell monolayers grown in 24 wells cluster dishes were inoculated with 200 plaque forming units (PFU) of KHV in 0.2 ml of serum free Dulbecco's Modified Eagle Medium (DMEM, commercially available from Invitrogen). […] Five days post infection (pi), viral plaques or virus induced cytopathic effects were observed by staining cells with a crystal violet (Merck) solution.
as §1, with “Alternatively, PMEDAP was” for “Compounds for testing KHV-antiviral activity were”, “DMEM and propyleneglycol (33.3%)/ethanol(8.3%) (PE buffer) respectively,” for “dimethylsulfoxide (DMSO)”, “10 mg/ml.” for “20 mg/ml, then filtrated through a 0.45 μm filter to obtain a sterile solution.”, “modified eagle medium” for “Modified Eagle Medium”

[2] = system: KHV infections; conditions: Ilouze et al., FEBS Letters (2006) 580(18) 4473-4478; cited from earlier work
[3] = system: koi carps; experiment: In vivo koi carps toxicity experiment, intraperitoneal injection; set-up: species or system koi carps (Cyprinus carpio koi); conditions: 50 mg/kg intraperitoneal, 10 consecutive days
Description: Naïve adult koi carps were kept in 150-liter tanks with filtrated water maintained at 23° C. One group (n=12) was treated for 10 consecutive days, by intraperitoneal injection of PMEDAP (50 mg/kg) dissolved in 0.2 ml of DMEM. The other group (n=12), used as negative control, was injected with 0.2 ml DMEM. After 10 days, all fish were examined and weighed. Three fishes of each group were euthanized. Liver and kidney explants were treated for anatomopathology analysis.

[4] = system: Koi Herpes virus (KHV); experiment: Pulse chase treatment with PMEDAP on KHV growth in vitro; assay type: cell-based, Koi herpesvirus (KHV); conditions: 50 μg/ml PMEDAP for only the first 24 hours post infection, CCB cells, observed 5 days post-infection
Description: PMEDAP was dissolved in DMSO at a concentration of 20 mg/ml then filtrated through a 0.45 μm filter. CCB cells were grown in 24-well culture plates in MEM containing 4.5 g/l glucose and 10% FCS. Cells were inoculated with 200 PFU of KHV in 0.2 ml of serum free DMEM. After 2 hours incubation, cells were overlaid with DMEM (4.5 g/l glucose, 10% FCS) containing 50 μg/ml of PMEDAP. Mock-infected cells and untreated infected cells (ND) were included as negative controls. At successive intervals pi, cells were washed twice with PBS then overlaid with complete DMEM. Five days pi, viral plaques were observed by a crystal violet assay.

[5] = system: koi carps; experiment: In vivo koi carps toxicity experiment, intramuscular injection; set-up: species or system koi carps (Cyprinus carpio koi); conditions: for Microscopic lesions: liver and kidney explants
Description: An additional experiment was performed as following: Naive adult koi carps were kept in 60-liter tanks with filtrated water maintained at 23° C. […] (5 koi per group) were treated for 10 consecutive days, by intramuscular injection of 20 mg/kg PMEDAP ((“PMEDAP 20”) or 50 mg/kg PMEDAP (“PMEDAP 50”)) dissolved in 0.1 ml of DMEM. Two other groups (5 koi per group), used as negative controls, were injected with 0.1 ml of DMEM. After 10 days, all fish were examined and weighed. Three fishes of each group were euthanized. Liver and kidney explants were treated for anatomopathology analysis.

[6] = KHV (200 PFU) in CCB cells, compounds dissolved in DMSO, read five days post infection, read-out: IC50
[7] = 20 mg/kg intramuscular, 10 consecutive days (PMEDAP 20)
[8] = 50 mg/kg intramuscular, 10 consecutive days (PMEDAP 50)

IC50 [1, 6]: 100 µg/mL (≈ 392 µM)
Structure (SMILES): Nc1nc(O)c2ncn(COC(CO)CO)c2n1 [GCV (ganciclovir), ganciclovir]
effect on KHV replication (in words) [1]: no effect or a very limited effect

IC50 [1, 6]: 50 µg/mL (≈ 179 µM)
Structure (SMILES): Nc1ccn(C[C@@H](CO)OCP(=O)(O)O)c(=O)n1 [HPMPC, cidofovir]
effect on KHV replication (in words) [1]: no effect or a very limited effect

Structure (SMILES): Nc1nc2c(ncn2COCCO)c(=O)[nH]1 [acyclovir]
effect on KHV replication (in words) [1]: no effect or a very limited effect
activity against KHV infections (in words) [2]: inactive

Structure (SMILES): Nc1ncnc2c1ncn2CCOCP(=O)(O)O [PMEA (adefovir), 9-[2-phosphonylmethoxyethyl]adenine]
IC50 [1, 6]: 6.5 µg/mL (≈ 23.8 µM)
concentration resulting in complete inhibition of KHV replication [1]: 25 µg/mL

Structure (SMILES): Nc1nc(N)c2ncn(CCOCP(=O)(O)O)c2n1 [PMEDAP, 9-(2-phosphonylmethoxyethyl)-2,6-diaminopurine]
IC50 [1, 6]: 4.8 µg/mL (≈ 16.7 µM)
concentration resulting in complete inhibition of KHV replication [1]: 12.5 µg/mL
effect on KHV replication (in words) [1]: highly active
Clinical signs [3]: None
Survival (%) [3]: 100%
mean weight of fishes, PMEDAP versus DMEM [3]: statistically similar
toxic effect (in words) [3]: did not reveal any toxic effect
Microscopic lesions ([3]; liver and kidney explants): None
Mean final weight ([3]; mean initial weight 66.1 g): 71.5 g
inhibition of virus induced cytopathic effect [4]: complete inhibition
Clinical signs [5, 7]: None
Survival (%) [5, 7]: 100%
Microscopic lesions [5, 7]: None
Mean final weight ([5]; 20 mg/kg intramuscular, 10 consecutive days (PMEDAP 20), mean initial weight 23.1 g): 21.3 g
Clinical signs [5, 8]: None
Survival (%) [5, 8]: 100%
Microscopic lesions [5, 8]: None
Mean final weight ([5]; 50 mg/kg intramuscular, 10 consecutive days (PMEDAP 50), mean initial weight 16.3 g): 15.3 g

Structure (SMILES): O=c1[nH]c(=O)n([C@H]2C[C@H](O)[C@@H](CO)O2)cc1/C=C/Br [BVDU (brivudin), brivudin]
IC50 [1]: 100 µg/mL (≈ 300 µM)
effect on KHV replication (in words) [1]: no effect or a very limited effect

IC50 [1, 6]: > 100 µg/mL
Structure (SMILES): O=C(O)P(=O)(O)O [PFA (foscarnet), foscarnet]
